Measured values reported in the supplement of paper PMC10307832.

Legend:
Experiment in all cases: relative viability (nuclei count vs DMSO), 5 days (fraction); higher = more cells survive
[1] = compound: COC1=CC=C(C=C1)CN2C=CC3=C2C=C(C=C3)C(=O)NO + CC(C)C[C@H](NC(=O)[C@H](Cc1ccccc1)NC(=O)c1cnccn1)B(O)O [Bortezomib] (partner 0.002 µM)
Outline: (§1)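 A single step with final 0.05% Triton X-100, 1% formaldehyde and 1 ug/ml Hoechst fixed the cells and stained nuclei 5 days after treatment. Lung cancer cell lines in 1536-well plates had been treated by pin tool the day after seeding with one drug alone or a fixed anchor-drug dose plus five library-drug doses (not always all listed) in √10 steps, and nuclei were counted on 4× images. Relative viability is the ratio of nuclei in treated wells to nuclei in vehicle wells, taken as the median of duplicate plates.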

[2] = compound: COC1=CC=C(C=C1)CN2C=CC3=C2C=C(C=C3)C(=O)NO + CC1(C)CCC(c2ccc(Cl)cc2)=C(CN2CCN(c3ccc(C(=O)NS(=O)(=O)c4ccc(N[C@H](CCN5CCOCC5)CSc5ccccc5)c(S(=O)(=O)C(F)(F)F)c4)cc3)CC2)C1 [Navitoclax] (partner 0.5 µM)
Outline: as §1

[3] = compound: COC1=CC=C(C=C1)CN2C=CC3=C2C=C(C=C3)C(=O)NO + Nc1nc2[nH]cc(CCc3ccc(C(=O)N[C@@H](CCC(=O)O)C(=O)O)cc3)c2c(=O)[nH]1 [Pemetrexed] (partner 0.2 µM)
Outline: as §1

[4] = compound: C[C@]1(c2nc3c(C(N)=O)cccc3[nH]2)CCCN1 [Veliparib] + N=C(N)NC(=N)NCCc1ccccc1 [Phenformin] (partner 250 µM)
Outline: as §1

Cell Line | relative viability ([1]; first compound 0.253 µM) | relative viability ([1]; first compound 0.8 µM) | relative viability ([1]; first compound 2.53 µM) | relative viability ([1]; first compound 8 µM) | relative viability ([2]; first compound 0.253 µM) | relative viability ([2]; first compound 0.8 µM) | relative viability ([2]; first compound 2.53 µM) | relative viability ([2]; first compound 8 µM) | relative viability ([3]; first compound 0.253 µM) | relative viability ([3]; first compound 0.8 µM) | relative viability ([3]; first compound 2.53 µM) | relative viability ([3]; first compound 8 µM) | relative viability ([4]; first compound 0.02 µM) | relative viability ([4]; first compound 0.06325 µM) | relative viability ([4]; first compound 0.2 µM) | relative viability ([4]; first compound 0.6325 µM) | relative viability ([4]; first compound 2 µM) | relative viability ([1]; first compound 0.08 µM) | relative viability ([2]; first compound 0.08 µM) | relative viability ([3]; first compound 0.08 µM)
LCLC-97TM1 | 0.333 | 0.791 | 0.734 | 0.527 | 0.505 | 0.472 | 0.42 | 0.412 | 0.192 | 0.182 | 0.191 | 0.144 | 0.428 | 0.435 | 0.439 | 0.428 | 0.499 | – | – | –
LOU-NH91 | 0.472 | 0.466 | 0.476 | 0.504 | 0.677 | 0.739 | 0.725 | 0.576 | 0.417 | 0.346 | 0.372 | 0.391 | 0.604 | 0.457 | 0.694 | 0.639 | 0.682 | 0.387 | 0.419 | –
LU99A | 1.13 | 1.14 | 1.06 | 0.938 | 0.787 | 0.803 | 0.847 | 0.878 | 0.181 | 0.169 | 0.174 | 0.194 | 0.928 | 0.838 | 0.612 | 0.75 | 0.976 | – | – | –
LXF-289 | 1 | 0.956 | 0.964 | 0.931 | 0.947 | 0.954 | 0.935 | 1.03 | 0.937 | 0.872 | 0.907 | 0.881 | 0.521 | 0.52 | 0.533 | 0.499 | 0.539 | 0.699 | 0.446 | –
NCI-H23 | 1.02 | 1.14 | 0.975 | 0.594 | 0.689 | 0.896 | 0.985 | 0.728 | 0.625 | 0.714 | 0.709 | 0.668 | 0.851 | 0.73 | 0.762 | 0.756 | 0.833 | 1.04 | 0.675 | 0.514
NCI-H322M | 0.971 | 1.27 | 1.23 | 1.26 | 1.1 | 1.13 | 1.18 | 1.24 | – | 0.561 | 0.635 | 0.609 | – | 0.641 | 0.814 | 0.724 | 0.747 | – | – | –
NCI-H441 | 0.406 | 0.543 | 0.497 | 0.413 | 0.708 | 0.701 | 0.523 | 0.595 | 0.264 | 0.273 | 0.278 | 0.261 | 0.915 | 0.986 | 0.855 | 0.72 | 0.876 | 0.331 | 0.611 | 0.26
NCI-H460 | 0.984 | 1.04 | 1.14 | 1.01 | 1.15 | 1.08 | 1.15 | 1.1 | 0.058 | 0.0547 | 0.0598 | 0.0652 | 0.361 | 0.491 | 0.484 | 0.489 | 0.52 | 1.02 | 1.04 | 0.0617
NCI-H520 | 0.722 | 0.64 | 0.751 | 0.525 | 1.18 | 1.27 | 1.15 | 1.09 | 0.743 | 0.641 | 0.661 | 0.648 | 0.709 | 0.558 | 0.761 | 0.538 | 0.578 | 0.218 | 0.279 | 0.525
NCI-H596 | – | 0.943 | 1.07 | 1.02 | 0.906 | 1.07 | 0.963 | 1.04 | 0.501 | 0.5 | 0.469 | 0.492 | 0.633 | 0.744 | 0.809 | 0.725 | 0.747 | 1.04 | 0.944 | 0.42
NCI-H647 | 0.929 | 0.848 | 0.846 | 1.11 | 1.04 | 1 | 0.959 | 1.21 | 0.154 | 0.149 | 0.166 | 0.231 | 0.438 | 0.405 | 0.563 | 0.505 | 0.597 | 0.789 | – | 0.142
NCI-H838 | 0.99 | 0.899 | 0.885 | 0.719 | 1.22 | 1.17 | 1.22 | 1.09 | 0.27 | 0.244 | 0.234 | 0.257 | 0.576 | 0.495 | 0.564 | 0.424 | 0.628 | – | – | 0.232
NCI-H1355 | 1.15 | 1.34 | 1.27 | 1.19 | 1 | 0.94 | 1.11 | 0.873 | 1.06 | 0.978 | 1.06 | 0.998 | – | 0.425 | 0.46 | 0.423 | 0.442 | 1.1 | 0.781 | 0.538
NCI-H1437 | 0.483 | 0.527 | 0.581 | 0.393 | 1.08 | 1.1 | 1.15 | 1.05 | 0.358 | 0.319 | 0.305 | 0.3 | 0.311 | 0.237 | 0.357 | 0.253 | 0.299 | 0.38 | 0.898 | 0.334
NCI-H1650 | 0.174 | 0.208 | 0.211 | 0.195 | 1.32 | 1.17 | 1.18 | 0.925 | 0.428 | 0.378 | 0.392 | 0.308 | – | 0.473 | 0.519 | 0.404 | 0.34 | 0.17 | 1.07 | 0.286
NCI-H1651 | 0.887 | 0.923 | 0.888 | 0.857 | 1.14 | 1.07 | 0.987 | 0.92 | 0.523 | 0.587 | 0.512 | 0.56 | 0.286 | 0.34 | 0.379 | 0.279 | 0.316 | 0.923 | 0.926 | 0.561
NCI-H1666 | 1.02 | 0.782 | 0.84 | 0.774 | 0.893 | 0.988 | 1.26 | 1.06 | 0.914 | 0.84 | 0.918 | 0.87 | 0.546 | 0.507 | 0.544 | 0.487 | 0.534 | 0.621 | 0.85 | 0.761
